In patent US8053578B2, “Alpha-fluoroalkyl dihydrotetrabenazine imaging agents and probes” (General Electric Company, priority 2007, dated 2011):

Target: T1, VMAT-2 (Homo sapiens, UniProt Q05940)
T1 construct: Novascreen Biosciences Corporation (contract assay provider) protocol Cat. No. 100-0751
Test: VMAT-2 binding affinity measurement (Novascreen protocol Cat. No. 100-0751)
Details: for Ki: Novascreen Biosciences protocol Cat. No. 100-0751; for VMAT-2 binding affinity, in words, relative to (+)-DTBZ control (Compound 18): summary of the Table 9 data
Description: In addition, the VMAT-2 binding affinity of a fluoroalkyl tetrabinazine carbinol compound 38 bearing an acetoxy group at ring position-2 was also measured. VMAT-2 binding affinity measurements were carried out by Novascreen Biosciences Corporation (Hanover, Md., USA) using protocol Cat. No. 100-0751. Novascreen, Inc. is a commercial provider of biological assays for the pharmaceutical industry.

T1 sequence (Q05940 whole entry, species assumed): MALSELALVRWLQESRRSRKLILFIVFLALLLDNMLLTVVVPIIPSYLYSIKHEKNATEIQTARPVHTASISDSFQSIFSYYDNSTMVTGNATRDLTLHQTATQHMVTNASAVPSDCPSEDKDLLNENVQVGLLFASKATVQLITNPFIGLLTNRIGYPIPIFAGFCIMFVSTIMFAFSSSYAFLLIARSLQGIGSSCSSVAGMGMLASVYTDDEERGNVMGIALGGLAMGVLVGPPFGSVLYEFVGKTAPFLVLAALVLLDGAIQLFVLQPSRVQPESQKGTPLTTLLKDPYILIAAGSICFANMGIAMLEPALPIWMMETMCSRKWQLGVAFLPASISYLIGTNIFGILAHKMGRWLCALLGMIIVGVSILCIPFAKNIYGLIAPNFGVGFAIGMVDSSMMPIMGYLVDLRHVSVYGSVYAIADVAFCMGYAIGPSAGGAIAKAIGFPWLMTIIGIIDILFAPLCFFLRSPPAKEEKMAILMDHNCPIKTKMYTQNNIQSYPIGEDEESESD

Structure (SMILES) | Ki | VMAT-2 binding affinity, in words, relative to (+)-DTBZ control (Compound 18)
COc1cc2c(cc1OC)[C@H]1C[C@](O)(C#CCF)[C@H](CC(C)C)CN1CC2 [Compound 39] |  | somewhat lower yet still robust binding activity
COc1cc2c(cc1OC)[C@H]1C[C@@](C#CCF)(OC(C)=O)[C@H](CC(C)C)CN1CC2 [Compound 38] |  | somewhat lower yet still robust binding activity
COc1cc2c(cc1OC)[C@H]1C[C@@H](O)[C@H](CCCC[19F])CN1CC2 [Compound 31] | 6.4 nM | very high binding affinity

The next lines start with the values.

Ki | VMAT-2 binding affinity, in words, relative to (+)-DTBZ control (Compound 18) | Structure (SMILES)
2.6 nM | very high binding affinity | COc1cc2c(cc1OC)[C@H]1C[C@H](O)[C@H](CC(C)(C)CC[19F])CN1CC2 [Compound 2-epi-32]
0.45 nM | very high binding affinity | COc1cc2c(cc1OC)[C@H]1C[C@@H](O)[C@H](CC(C)(C)CC[19F])CN1CC2 [Compound 32]
